Results published in US20230272012A1, “PEPTIDES AND METHODS OF USE” (REALTA LIFE SCIENCES, INC., priority 2020, published 2023).
“Also recorded” adds a separate entry of the source. Bridge positions count the residues as written; N and C are the ends. Square brackets hold non-standard residues; d marks the D form. Ends that are not written are not given here. Peptide text beside a SMILES is read from it. R8 = C=CCCCCCC[C@@](C)(N)C(=O)O; S5 = C=CCCC[C@](C)(N)C(=O)O; Sar = CNCC(=O)O

What was measured:
complement activity = assay: Hemolytic assay of plasma after IV infusion into rats; assay type: in vivo, rat; conditions: IV in Wistar rats; early time points at the highest dose
Experimental: Male Wistar rats with indwelling jugular catheters were administered PA-0117, -0127, -0130, and -0133 with groups of three animals receiving 20, 200 and 400 mg/kg of the compound as a single, bolus, IV infusion. A control group of rats received an infusion of saline IV. At various time points after infusion (0.5, 2, 5, 20, 60, 120, 240, 480, 1440 minute) an aliquot of blood was drawn and plasma isolated and frozen at −70° C. pending analysis. Animals were sacrificed after the terminal blood draw and a gross necropsy performed.
PA-0117 could not be analyzed as no functional complement activity was obtained from the plasma samples. […] PA-0117 was analyzed in a C1q target acquisition assay (C1q binding assay) as described in Example 1 (FIG. 9). […] PA-0127 and -0130 levels were determined by coating the plate with the plasma samples and directly detecting the peptides by rabbit antibody raised against PA-0020 (peptide sequence […]; SEQ ID NO: 57) (FIGS. 10B and 11B). […] PA-0133 could not be detected by the available antibodies.

MPO = target: T1, MPO (Homo sapiens, UniProt P05164); assay: MPO activity assay (TMB oxidation); assay type: biochemical; conditions: for inhibition of MPO peroxidase activity (TMB oxidation), dose response: purified human MPO, increasing amounts of peptide
T1 construct: purchased Lee BioSolutions (Maryland Heights, Mo.)
T1 sequence (P05164 49-745): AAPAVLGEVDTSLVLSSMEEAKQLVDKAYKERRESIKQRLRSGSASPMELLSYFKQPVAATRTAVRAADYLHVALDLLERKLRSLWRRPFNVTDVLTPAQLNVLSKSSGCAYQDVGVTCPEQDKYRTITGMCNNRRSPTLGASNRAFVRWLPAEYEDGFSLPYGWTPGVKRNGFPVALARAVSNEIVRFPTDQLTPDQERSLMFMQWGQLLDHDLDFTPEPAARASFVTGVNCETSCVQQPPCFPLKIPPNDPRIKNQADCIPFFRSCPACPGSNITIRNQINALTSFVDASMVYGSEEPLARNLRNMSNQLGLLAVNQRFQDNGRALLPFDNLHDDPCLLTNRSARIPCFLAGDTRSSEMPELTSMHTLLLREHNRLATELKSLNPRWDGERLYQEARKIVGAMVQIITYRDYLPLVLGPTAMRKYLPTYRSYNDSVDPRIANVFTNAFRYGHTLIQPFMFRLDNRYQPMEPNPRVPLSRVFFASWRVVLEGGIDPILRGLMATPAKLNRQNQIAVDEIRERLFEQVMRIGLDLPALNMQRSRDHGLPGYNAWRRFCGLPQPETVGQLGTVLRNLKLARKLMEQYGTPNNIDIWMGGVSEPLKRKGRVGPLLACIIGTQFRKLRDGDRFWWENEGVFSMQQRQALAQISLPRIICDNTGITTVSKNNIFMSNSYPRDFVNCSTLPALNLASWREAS
Experimental: The MPO activity assay was performed as previously described. Briefly, peptides were diluted to 12 mg/ml and serially titrated in a 96 well plate at a volume of 0.02 ml. MPO was diluted to 20 μg/ml and 0.02 ml was added to the titrated peptides. TMB (3,30,5,50-tetramethylbenzidine) (0.1 ml) was added to each well for 2 minutes, followed by 0.1 ml of 2.5 N H2SO4 for another 2 minutes, and then read on a 96 well plate reader (BioTek) at 450 nm.
(§1) The inventors also assessed the ability of RLS-0127* and RLS-0133* to inhibit MPO activity as determined by inhibition of oxidation of TMB in a plate-based assay. […] Additionally, the inventors assessed the ability of RLS-0127* and RLS-0133* to bind C1q in a plate-based assay in which C1q is coated on the plate and increasing amounts of the peptides are added, followed by primary antibody to the peptides and secondary antibody conjugated to HRP. The plate was then incubated with TMB to give a […] signal that is detected at a wavelength of 450 nm in a plate reader.

C1q = target: T2, C1q (Homo sapiens, UniProt P02745+P02746+P02747); assay: C1q binding ELISA-type assay; conditions: for binding to C1q: plate-bound C1q, antibody detection
T2 construct: purchased Complement Technology (Tyler, Tex.)
Experimental: The C1q binding assay was performed as previously described. Briefly, an Immunlon-2 HB ELISA plate was coated with 1 μg/ml C1q in bicarbonate buffer overnight at 4° C. The plates were washed with PBS-T (phosphate buffered saline+0.1% Tween) and then blocked with 1% gelatin/PBS for 2 hours at room temperature. After washing, the plates were incubated with the peptides starting at 2.5 mg/ml and then serially diluted in 1% gelatin/PBS for 1 hour at room temperature followed by washing. Plates were then probed with rabbit antibody raised against the lead peptide […] (SEQ ID NO: 2) that lacked PEGylation at 1:1000 in 1% gelatin/PBS for 1 hour at room temperature followed by a goat anti-rabbit HRP (Sigma Aldrich, St Louis, Mo.) at 1:1,000 in 1% gelatin/PBS for 1 hour at room temperature with a washing step in between. After addition of TMB substrate solution to the wells, the reaction was stopped using 1N H2SO4, and the plate read on a BioTek Synergy HT plate reader at 450 nm.
The astrovirus capsid protein and the PIC1 molecules derived from it inhibit classical complement pathway activation by binding to the pattern recognition molecule C1q. The inventors next tested peptide variant binding to C1q in an ELISA-type assay in which C1q is used as the capture substrate and bound peptide detected with a rabbit polyclonal antibody against the peptide portion of PA-dPEG24 ([…]-d24; SEQ ID NO: 3). Binding curves were derived for the stapled and D-amino acid peptides based on the PA-I8Sar and PA-C9Sar (FIG. 6A-6D) backbone, from which half-maximal binding concentrations were calculated (FIGS. 2A and B, respectively). […] For the D-amino acid variants, all peptides in which C1q binding was detected, had variable but increased binding to C1q compared to PA-I8Sar (FIG. 2A). For the peptides based on the PA-C9Sar backbone, with the exception of PA-0148, C1q was bound to the same degree or greater than the parent peptide (FIG. 2B).
as §1

T2 sequence (P02745 23-245): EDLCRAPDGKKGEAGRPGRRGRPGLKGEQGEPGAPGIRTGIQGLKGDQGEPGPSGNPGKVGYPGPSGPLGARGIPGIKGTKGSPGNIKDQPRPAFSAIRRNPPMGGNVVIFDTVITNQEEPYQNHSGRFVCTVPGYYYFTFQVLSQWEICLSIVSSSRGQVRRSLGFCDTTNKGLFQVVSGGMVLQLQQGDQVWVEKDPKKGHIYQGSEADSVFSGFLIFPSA
T2 sequence (P02746 28-253): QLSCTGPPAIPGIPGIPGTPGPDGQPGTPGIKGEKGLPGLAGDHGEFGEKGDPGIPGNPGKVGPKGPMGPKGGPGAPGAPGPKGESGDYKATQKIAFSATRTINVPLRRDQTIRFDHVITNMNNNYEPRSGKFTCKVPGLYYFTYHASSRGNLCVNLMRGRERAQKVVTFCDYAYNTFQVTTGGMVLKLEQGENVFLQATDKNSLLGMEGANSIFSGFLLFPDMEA
T2 sequence (P02747 29-245): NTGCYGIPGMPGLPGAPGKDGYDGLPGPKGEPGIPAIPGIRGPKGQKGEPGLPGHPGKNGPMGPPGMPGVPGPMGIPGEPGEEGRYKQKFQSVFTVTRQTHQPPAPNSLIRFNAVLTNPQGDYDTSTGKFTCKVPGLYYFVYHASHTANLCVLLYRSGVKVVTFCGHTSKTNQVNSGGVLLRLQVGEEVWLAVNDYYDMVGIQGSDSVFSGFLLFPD

Molecule | inhibition of complement activity in the hemolytic assay of rat plasma (complement activity) | inhibition of MPO peroxidase activity (TMB oxidation), dose response (MPO) | binding to C1q (C1q) | MPO inhibition compared with PA-I8Sar (MPO; half-maximal values from dose-response curves) | binding to C1q compared with PA-I8Sar (C1q; half-maximal binding from binding curves)
IALILEP(Sar)dCCQERRA (IALILEP[Sar][dC]CQERRA; cysteine pairing not given here) [RLS-0127*] | inhibit complement activation | dose-dependently inhibited TMB oxidation; also recorded: inhibit complement activation and MPO peroxidase activity | bound C1q in a dose-dependent manner; also recorded: binds C1q | – | –
IALILEP(Sar)CCQERA (IALILEP[Sar]CCQERA; cysteine pairing not given here) [RLS-0133*] | inhibit complement activation | dose-dependently inhibited TMB oxidation; also recorded: inhibit complement activation and MPO peroxidase activity | – | – | –
CC[C@H](C)[C@H](N)C(=O)N[C@]1(C)CCCCCCC=CCCC[C@@](C)(C(=O)N[C@@H](CS)C(=O)N[C@@H](CCC(N)=O)C(=O)N[C@@H](CCC(=O)O)C(=O)N[C@@H](CCCNC(=N)N)C(=O)N[C@@H](C)C(=O)N[C@@H](C)C(=O)O)NC(=O)CN(C)C(=O)[C@@H]2CCCN2C(=O)[C@H](CCC(=O)O)NC(=O)[C@H](CC(C)C)NC(=O)[C@H]([C@@H](C)CC)NC(=O)[C@H](CC(C)C)NC1=O [PA-0115, IR8LILEP(Sar)S5CQERAA] (H-I[R8]LILEP[Sar][S5]CQERAA-OH; staple 2-9) | – | – | – | enhanced activity | markedly increased binding to C1q; also recorded: enhanced activity
CC[C@H](C)[C@H](N)C(=O)N[C@@H](C)C(=O)N[C@@H](CC(C)C)C(=O)N[C@H](C(=O)N[C@@H](CC(C)C)C(=O)N[C@@H](CCC(=O)O)C(=O)N1CCC[C@H]1C(=O)N(C)CC(=O)N[C@@H](CS)C(=O)N[C@@]1(C)CCCC=CCCC[C@@](C)(C(=O)N[C@@H](C)C(=O)O)NC(=O)[C@H](CCCNC(=N)N)NC(=O)[C@H](CCC(=O)O)NC(=O)[C@H](CCC(N)=O)NC1=O)[C@@H](C)CC [PA-0117, IALILEP(Sar)CS5QERS5A] (H-IALILEP[Sar]C[S5]QER[S5]A-OH; staple 10-14) | – | – | dose-dependent binding | – | –
